From patent publication US20260125375A1 (Pfizer Inc., priority 2022, published 2026) come the findings set out here.

The target in assay [1] is T1, C-CBL (residues 46-435) (Homo sapiens, UniProt P22681).
T1 construct: Purified CBL-B (residues 36-427) and C-CBL (residues 46-435) proteins from baculovirus-infected insect cells; made in house; host or cells: baculovirus-infected insect cells
T1 sequence (P22681 46-435): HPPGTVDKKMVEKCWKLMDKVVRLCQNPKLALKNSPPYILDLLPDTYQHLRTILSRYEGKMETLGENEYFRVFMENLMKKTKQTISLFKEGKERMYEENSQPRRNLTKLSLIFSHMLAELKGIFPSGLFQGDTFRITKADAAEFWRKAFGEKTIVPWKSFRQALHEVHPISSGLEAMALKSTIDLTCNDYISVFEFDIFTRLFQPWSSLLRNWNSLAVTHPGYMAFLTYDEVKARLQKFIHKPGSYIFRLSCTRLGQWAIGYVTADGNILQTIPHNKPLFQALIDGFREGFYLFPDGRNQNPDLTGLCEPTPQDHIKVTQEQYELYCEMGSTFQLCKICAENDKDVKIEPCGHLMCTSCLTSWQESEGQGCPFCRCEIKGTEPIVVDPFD
Put plainly: Ligand Displacement Assay (LDA), HTRF competitive binding against BODIPY-labeled fluorescent tracer, C-CBL. To be noted: geometric mean of the number of tests, read-out: C-CBL Ki (nM) GMean. In a few lines:
(§1)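 Competition with a BODIPY fluorescent tracer was read by HTRF, each protein carrying an N-terminal biotinylated AviTag bound to Tb-streptavidin. Tracer KD values were set beforehand per protein; Ki derives from duplicate three-fold compound series ([…], 2% DMSO), averaged geometrically across tests.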
(In general: In TR-FRET formats the signal depends on donor and acceptor labels being close together.)

Assay [2] concerns the target T2, C-CBL (Homo sapiens, UniProt P22681).
T2 construct: endogenous in cells; host or cells: Jurkat HiBit-IL2 reporter cells, CBL-B knocked out by CRISPR
Put plainly: Jurkat HiBit-IL2 assay (CBL-B KO), reporter cell line expressing C-CBL only. Format: cell-based. The settings on record: CBL-B KO (C-CBL only), anti-CD3/anti-CD28 stimulation 4 hours, geometric mean, Table 16a, read-out: CBL-B KO EC50 (nM) GMean. The source says:
Jurkat HiBit-IL2 Assay (WT, c-CBL KO, CBL-B KO)
The purpose of the Jurkat HiBit-IL2 assay is to evaluate the effect of the inhibition of CBL-B and/or C-CBL on TCR/CD28 stimulated interleukin-2 (IL-2) secretion.
The expression of IL-2 can then be accurately measured by HiBit luciferase assay. Further, C-CBL or CBL-B was knocked out by CRISPR respectively in this Jurkat HiBit-IL2 reporter cell line to create reporter cell line expressing CBL-B only (c-CBL knockout (KO)) or C-CBL only (CBL-B KO).
All three reporter cell lines were maintained in RPMI-1640 media with GlutaMax, 10% fetal bovine serum, 100 units/ml of penicillin, and 100 μg/ml of streptomycin at 37° C., 5% CO2, at a cell density 1×10e5-2×10e6 viable cells/ml. Serial diluted compounds in DMSO (40 nl/well, final 0.1% DMSO in assay cell culture) were plated into 384-well white-wall clear-bottom cell culture plates. Reporter cells were pelleted and resuspended in fresh cell culture medium to 0.66×10e6 cells/ml and added to the assay plate at 30 μl/well (20,000 cells/well). The cells were incubated with compounds for 1 hour at 37° C., 5% CO2. 10 μl/well of anti-CD3 antibody (OKT3) and anti-CD28 antibody (CD28.2) prediluted in fresh cell culture medium at 4× final concentration (anti-CD3 mAb: 4 μg/ml; anti-CD28 mAb: 8 μg/ml) was added into the cells (final concentration of anti-CD3 mAb: 1 μg/ml; anti-CD28 mAb: 2 μg/ml). The cells were cultured for another 4 hours at 37° C., 5% CO2. The Nano-Glo HiBiT Lytic Reagent was prepared following the manufacturer's protocol. 20 ul/well of the Nano-Glo HiBiT Lytic Reagent was added into the reporter cell culture assay plate and incubated at room temperature (20-25° C.) for 15 minutes. The plates were read on a Perkin-Elmer EnVision plate reader with 0.1 second integration time. Data were normalized to “Fold of Effect” with the anti-CD3 and anti-CD28 antibodies only samples as the baseline activation level and EC50 was calculated. The EC50 (nM) values reported are the geometric means (GMean) of the number of tests conducted.
In general terms: The HiBiT peptide binds its large partner to form an active luciferase.

Assay [3] addresses T3, WT CBL-B (36-427) (Homo sapiens, UniProt Q13191).
T3 construct: N-terminal biotinylated WT CBL-B (36-427) and C-CBL (46-435) were captured on a streptavidin (SA) coated sensor chip
Put plainly: Surface Plasmon Resonance (SPR) assay, binding affinity and kinetics, CBL-B. The settings on record: SPR at 10° C., biotinylated WT CBL-B (36-427) on streptavidin chip; geometric mean; read-out: CBL-B SPR Kd (nM) GMean. In short, it runs like this: (§2)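 Biotinylated WT CBL-B (36-427) or C-CBL (46-435) captured on streptavidin chip (~5000–6000 RU); binding at 10° C in HEPES buffer pH 7.2 with 2% DMSO. Multi-cycle: 2-fold, 10-point series from 10 or 100 μM, 90 s association. Single-cycle: 3-fold, 6-point, 0.001–1 μM, 120 s association, >5400 s dissociation.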

Assay [4] concerns the target T4, CBL-B (residues 36-427) (Homo sapiens, UniProt Q13191).
T4 construct: Purified CBL-B (residues 36-427) and C-CBL (residues 46-435) proteins from baculovirus-infected insect cells; made in house; host or cells: baculovirus-infected insect cells
Briefly: Ligand Displacement Assay (LDA), HTRF competitive binding against BODIPY-labeled fluorescent tracer, CBL-B. The settings on record: geometric mean of the number of tests, read-out: CBL-B Ki (nM) GMean. In a few lines: as §1

For assay [5], the target named is T5, C-CBL (46-435) (Homo sapiens, UniProt P22681).
T5 construct: N-terminal biotinylated WT CBL-B (36-427) and C-CBL (46-435) were captured on a streptavidin (SA) coated sensor chip
T5 sequence (P22681 46-435): T1 sequence (P22681 46-435)
Briefly: Surface Plasmon Resonance (SPR) assay, binding affinity and kinetics, C-CBL. The settings on record: SPR at 10° C., biotinylated C-CBL (46-435) on streptavidin chip; geometric mean; read-out: C-CBL SPR Kd (nM) GMean. In short, it runs like this:
as §2

As to `Cn1cnnc1[C@@H](c1cccc(-c2n[nH]c3c(CN[C@@H]4CCC(F)(F)C4)nc(C(F)(F)F)cc23)c1)C1CCC1` [Example C5, (1R)-N-{[3-{3-[(R)-cyclobutyl(4-methyl-4H-1,2,4-triazol-3-yl)methyl]phenyl}-5-(trifluoromethyl)-1H-pyrazolo[3,4-c]cyclopen-7-yl]methyl}-3,3-difluorocyclopentan-1-amine], the Ki – broadly, a dissociation constant, usually derived from enzyme kinetics or from competition with a known ligand – in assay [1] was found to be 526 nM; in assay [4], 55.3 nM. Also, the EC50 (as a rule, the concentration needed to bring the measured effect to its halfway point) in assay [2] was 1250 nM. The figures for the Kd in assay [3] and in assay [5] were 3.4 nM and 203 nM, respectively.
For the compound `C[C@@H](c1nc(C(F)(F)F)cc2c(-c3cccc(C4(Cc5nncn5C)COC4)c3)n[nH]c12)N(C)C` (single isomer, unassigned) [Example D39], the Ki stood at 229 nM in assay [1] and 42.1 nM in assay [4]. Further, the Kd (usually the equilibrium constant for the complex coming apart) is 14.9 nM in assay [3] and 164 nM in assay [5].
The corresponding values for `C[C@H](c1nc(C(F)(F)F)cc2c(-c3cccc(C4(Cc5nncn5C)COC4)c3)n[nH]c12)N1CC(F)(F)C1` (single isomer, unassigned) [Example D46] are 250 nM, 46.5 nM, 12.2 nM and 184 nM.
For `Cn1cnnc1[C@@H](c1cccc(-c2n[nH]c3c(CN4CC[C@H](O)C4)nc(C(F)(F)F)cc23)c1)C1CCC1` [Example C77, (3S)-1-{[3-{3-[(R)-cyclobutyl(4-methyl-4H-1,2,4-triazol-3-yl)methyl]phenyl}-5-(trifluoromethyl)-1H-pyrazolo[3,4-c]pyridin-7-yl]methyl}pyrrolidin-3-ol] the same measures were 29.5 nM, 2.4 nM, 2.5 nM and 54.9 nM.
The corresponding values for `CC(NC1CC(F)(F)C1)c1nc(C(F)(F)F)cc2c(-c3cccc(C4(Cc5nncn5C)COC4)c3)n[nH]c12` (single isomer, unassigned) [Example C93, 3,3-difluoro-N-{(1ξ)-1-[3-(3-{3-[(4-methyl-4H-1,2,4-triazol-3-yl)methyl]oxetan-3-yl}phenyl)-5-(trifluoromethyl)-1H-pyrazolo[3,4-c]pyridin-7-yl]ethyl}cyclobutan-1-amine] are 15.9 nM, 3.6 nM, 2.3 nM and 21.7 nM.
Regarding `CCC(c1cccc(-c2n[nH]c3cnc(C(F)(F)F)cc23)c1)c1nncn1C` (single isomer, unassigned) [Example A2, 3-{3-[(1ξ)-1-(4-methyl-4H-1,2,4-triazol-3-yl)propyl]phenyl}-5-(trifluoromethyl)-1H-pyrazolo[3,4-c]pyridine], the Ki is 224 nM in assay [1] and 80.4 nM in assay [4]. The Kd came to 35.8 nM in assay [3] and 251 nM in assay [5].
For `Cn1cnnc1[C@@H](c1cccc(-c2n[nH]c3c(CN4CCOCC4)nc(C(F)(F)F)cc23)c1)C1CCC1` [Example D96] the same measures were 377 nM, 41.9 nM, 5.5 nM and 120 nM.
The corresponding values for `CC(N)c1nc(C(F)(F)F)cc2c(-c3cccc(C4(Cc5nncn5C)COC4)c3)n[nH]c12` (single isomer, unassigned) [Example K17, (1ξ)-1-[3-(3-{3-[(4-methyl-4H-1,2,4-triazol-3-yl)methyl]oxetan-3-yl}phenyl)-5-(trifluoromethyl)-1H-pyrazolo[3,4-c]pyridin-7-yl]ethan-1-amine] are 145 nM, 44.6 nM, 27.3 nM and 256 nM.
The corresponding values for `CC(=O)NCC(C)c1nc(C(F)(F)F)cc2c(-c3cccc([C@H](c4nncn4C)C4CCC4)c3)n[nH]c12` (single isomer, unassigned) [Example M5] are 527 nM, 52.5 nM, 14.2 nM and 741 nM.
`Cn1cnnc1[C@@H](c1cccc(-c2n[nH]c3c(CNC4CCNC(=O)C4)nc(C(F)(F)F)cc23)c1)C1CCC1` (single isomer, unassigned) [Example C87]: the Ki in assay [1] was found to be 210 nM; in assay [4] it was 21.2 nM. Moreover, the Kd is 8.4 nM in assay [3] and 175 nM in assay [5].
The corresponding values for `Cn1cnnc1[C@@H](c1cccc(-c2n[nH]c3c(CN4CCCC4)nc(C(F)(F)F)cc23)c1)C1CCC1` [Example D94] are 192 nM, 29.2 nM, 5.5 nM and 163 nM.
As for `CCNC(C)c1nc(C(F)(F)F)cc2c(-c3cccc([C@H](c4nncn4C)C4CCC4)c3)n[nH]c12` (single isomer, unassigned) [Example C90], the Ki came to 93.3 nM in assay [1] and 9.4 nM in assay [4]. The Kd in assay [3] amounted to 5.1 nM; in assay [5], 169 nM.
The corresponding values for `CN(C)Cc1nc(C(F)(F)F)cc2c(-c3cccc(C4(Cc5nncn5C)COC4)c3)n[nH]c12` [Example C51, N,N-dimethyl-1-[3-(3-{3-[(4-methyl-4H-1,2,4-triazol-3-yl)methyl]oxetan-3-yl}phenyl)-5-(trifluoromethyl)-1H-pyrazolo[3,4-c]pyridin-7-yl]methanamine] are 115 nM, 22 nM, 17.8 nM and 182 nM.
The corresponding values for `Cn1cnnc1[C@@H](c1cccc(-c2n[nH]c3c(CN4CCNC(=O)C4)nc(C(F)(F)F)cc23)c1)C1CCC1` [Example C112, 4-{[3-{3-[(R)-cyclobutyl(4-methyl-4H-1,2,4-triazol-3-yl)methyl]phenyl}-5-(trifluoromethyl)-1H-pyrazolo[3,4-c]pyridin-7-yl]methyl}piperazin-2-one] are 114 nM, 15.4 nM, 3 nM and 82.1 nM.
The corresponding values for `Cn1cnnc1CC1(c2cccc(-c3n[nH]c4c(CN[C@H]5CCOC5)nc(C(F)(F)F)cc34)c2)COC1` [Example C50] are 90 nM, 24.7 nM, 14.5 nM and 145 nM.
Turning to `CC(N[C@H]1CCOC1)c1nc(C(F)(F)F)cc2c(-c3cccc(C4(Cc5nncn5C)COC4)c3)n[nH]c12` (single isomer, unassigned) [Example C81], the Ki stood at 18.2 nM in assay [1] and 6.5 nM in assay [4]. Besides, the values for the Kd in assay [3] and in assay [5] were 4.6 nM and 56.5 nM, respectively.
